Source: ChEMBL document CHEMBL3885861, “Open TG-GATES”

Species: Rattus norvegicus
Assay: Open TG-GATES - Regimen: Single
Assay type: toxicity, organism-based, Sprague-Dawley
Set-up: regimen Single, gender Male, age 6 weeks
Details: in vivo, po, 60 mg/kg, route gavage, dose level Low; for Bas / Eos / Lym / MCHC / MCV / Mono / Neu / RBC / Ret / WBC: tissue Blood; for KIDNEY_L / KIDNEY_R / KIDNEY_TOTAL: tissue Kidney; for LIVER: tissue Liver; for ALP / AST / CRE / DBIL / GLC / IP / K / LDH / Na / PL / RALB / TBIL / TC / TP / gamma-GTP: tissue Plasma

SMILES: CS(=O)(=O)O.Cc1ccc(NC(=O)c2ccc(CN3CCN(C)CC3)cc2)cc1Nc1nccc(-c2cccnc2)n1 [IMATINIB MESYLATE]
- Bas (3 h): 0%
- Eos (3 h): 1%
- Lym (3 h): 73.4%
- MCHC (3 h): 32.7%
- MCV (3 h): 63.2 fL
- Mono (3 h): 3%
- Neu (3 h): 21.6%
- RBC (3 h): 603 x10_4/ul
- Ret (3 h): 9.5%
- WBC (3 h): 109.9 x10_2/uL
- KIDNEY_L (3 h): 0.9 g
- KIDNEY_R (3 h): 0.9 g
- KIDNEY_TOTAL (3 h): 1.7 g
- LIVER (3 h): 9.3 g
- ALP (3 h): 1755.4 IU/L
- AST (3 h): 81.6 IU/L
- CRE (3 h): 0.2 mg/dL
- DBIL (3 h): 0.008 mg/dL
- GLC (3 h): 187 mg/dL
- IP (3 h): 8.6 mg/dL
- K (3 h): 4.1 meq/L
- LDH (3 h): 243.6 IU/L
- Na (3 h): 142.4 meq/L
- PL (3 h): 150.2 mg/dL
- RALB (3 h): 4 g/dL
- TBIL (3 h): 0.03 mg/dL
- TC (3 h): 82.8 mg/dL
- TP (3 h): 5.5 g/dL
- gamma-GTP (3 h): 0.8 IU/L
- Bas (6 h): 0%
- Eos (6 h): 0.8%
- Lym (6 h): 80.6%
- MCHC (6 h): 32.8%
- MCV (6 h): 63.4 fL
- Mono (6 h): 2%
- Neu (6 h): 16.2%
- RBC (6 h): 618.6 x10_4/ul
- Ret (6 h): 9.5%
- WBC (6 h): 104.6 x10_2/uL
- KIDNEY_L (6 h): 0.9 g
- KIDNEY_R (6 h): 0.9 g
- KIDNEY_TOTAL (6 h): 1.8 g
- LIVER (6 h): 8.4 g
- ALP (6 h): 1520 IU/L
- AST (6 h): 77.6 IU/L
- CRE (6 h): 0.2 mg/dL
- DBIL (6 h): 0.008 mg/dL
- GLC (6 h): 190.8 mg/dL
- IP (6 h): 9.4 mg/dL
- K (6 h): 4.2 meq/L
- LDH (6 h): 238 IU/L
- Na (6 h): 140.7 meq/L
- PL (6 h): 152.8 mg/dL
- RALB (6 h): 4 g/dL
- TBIL (6 h): 0.03 mg/dL
- TC (6 h): 82.4 mg/dL
- TP (6 h): 5.4 g/dL
- gamma-GTP (6 h): 0.7 IU/L
- Bas (9 h): 0%
- Eos (9 h): 1%
- Lym (9 h): 73.8%
- MCHC (9 h): 33%
- MCV (9 h): 63.2 fL
- Mono (9 h): 2.2%
- Neu (9 h): 22.6%
- RBC (9 h): 613.6 x10_4/ul
- Ret (9 h): 8.7%
- WBC (9 h): 94.3 x10_2/uL
- KIDNEY_L (9 h): 0.8 g
- KIDNEY_R (9 h): 0.9 g
- KIDNEY_TOTAL (9 h): 1.7 g
- LIVER (9 h): 8.2 g
- ALP (9 h): 1712.2 IU/L
- AST (9 h): 75.4 IU/L
- CRE (9 h): 0.2 mg/dL
- DBIL (9 h): 0.006 mg/dL
- GLC (9 h): 183.2 mg/dL
- IP (9 h): 9.4 mg/dL
- K (9 h): 4 meq/L
- LDH (9 h): 176.4 IU/L
- Na (9 h): 140 meq/L
- PL (9 h): 137.4 mg/dL
- RALB (9 h): 4 g/dL
- TBIL (9 h): 0.016 mg/dL
- TC (9 h): 77.8 mg/dL
- TP (9 h): 5.5 g/dL
- gamma-GTP (9 h): 0.7 IU/L
- Bas (24 h): 0%
- Eos (24 h): 0.6%
- Lym (24 h): 85%
- MCHC (24 h): 33.1%
- MCV (24 h): 64.4 fL
- Mono (24 h): 2.4%
- Neu (24 h): 11.6%
- RBC (24 h): 590.4 x10_4/ul
- Ret (24 h): 8.2%
- WBC (24 h): 87.7 x10_2/uL
- KIDNEY_L (24 h): 0.9 g
- KIDNEY_R (24 h): 0.9 g
- KIDNEY_TOTAL (24 h): 1.8 g
- LIVER (24 h): 10 g
- ALP (24 h): 1709.8 IU/L
- AST (24 h): 77.2 IU/L
- CRE (24 h): 0.2 mg/dL
- DBIL (24 h): 0.002 mg/dL
- GLC (24 h): 186.4 mg/dL
- IP (24 h): 7.6 mg/dL
- K (24 h): 4 meq/L
- LDH (24 h): 197 IU/L
- Na (24 h): 142.7 meq/L
- PL (24 h): 162.8 mg/dL
- RALB (24 h): 4.1 g/dL
- TBIL (24 h): 0.006 mg/dL
- TC (24 h): 85.4 mg/dL
- TP (24 h): 5.7 g/dL
